Laboratory results published in patent publication US9605004B2, “Chemical compounds” (SYNGENTA LIMITED, priority 2013, dated 2017).

Key:
[1] = tested on: a variety of test species; test: Pre-emergence herbicidal activity (Example 8a, Table 2); type: in vivo; set-up: key: 0 = no damage to plant, 5 = total damage to plant; settings: application pre-emergence, rate 1000 g/ha, evaluated after 13 days
Experimental: Seeds of a variety of test species were sown in standard soil in pots. After cultivation for one day (pre-emergence) under controlled conditions in a glasshouse (at 24/16° C., day/night; 14 hours light; 65% humidity), the plants were sprayed with an aqueous spray solution derived from the formulation of the technical active ingredient in acetone/water (50:50) solution containing 0.5% Tween 20 (polyoxyethelyene sorbitan monolaurate, CAS RN 9005-64-5). The test plants were then grown in a glasshouse under controlled conditions (at 24/16° C., day/night; 14 hours light; 65% humidity) and watered twice daily. After 13 days, the test was evaluated (5=total damage to plant; 0=no damage to plant).

[2] = tested on: a variety of test species; test: Post-emergence herbicidal activity (Example 8b, Table 3); type: in vivo; settings: application post-emergence, rate 1000 g/ha, evaluated after 13 days, scale 0-5; for Herbicidal damage score, ABUTH: Abutilon theophrasti; for Herbicidal damage score, ALOMY: Alopecurus myosuroides; for Herbicidal damage score, AMARE: Amaranthus retroflexus; for Herbicidal damage score, ECHCG: Echinochloa crus-galli; for Herbicidal damage score, SETFA: Setaria faberi; for Herbicidal damage score, ZEAMX: Zea mays
Experimental: Seeds of a variety of test species were sown in standard soil in pots. After 8 days cultivation (post-emergence) under controlled conditions in a glasshouse (at 24/16° C., day/night; 14 hours light; 65% humidity), the plants were sprayed with an aqueous spray solution derived from the formulation of the technical active ingredient in acetone/water (50:50) solution containing 0.5% Tween 20 (polyoxyethelyene sorbitan monolaurate, CAS RN 9005-64-5). The test plants were then grown in a glasshouse under controlled conditions (at 24/16° C., day/night; 14 hours light; 65% humidity) and watered twice daily. After 13 days, the test was evaluated (5=total damage to plant; 0=no damage to plant).

Row | Compound | Pre-emergence herbicidal activity, damage score ABUTH [1] | Pre-emergence herbicidal activity, damage score ALOMY [1] | Pre-emergence herbicidal activity, damage score AMARE [1] | Pre-emergence herbicidal activity, damage score ECHCG [1] | Pre-emergence herbicidal activity, damage score SETFA [1] | Pre-emergence herbicidal activity, damage score ZEAMX [1] | Herbicidal damage score, ABUTH [2] | Herbicidal damage score, ALOMY [2] | Herbicidal damage score, AMARE [2] | Herbicidal damage score, ECHCG [2] | Herbicidal damage score, SETFA [2] | Herbicidal damage score, ZEAMX [2]
1 | CC1=C(Br)C(=O)N(c2cc3n(n2)CC[S+]([O-])C3(C)C)C1O (mixture of isomers) [Compound M5] | 2 | 1 | 2 | 2 | 1 | 1 | 4 | 2 | 2 | 2 | 1 | 0
2 | CC1=C(Cl)C(=O)N(c2cc(C(C)(C)C)[nH]n2)C1O (stereo not drawn) [Compound A1] | 5 | 3 | 5 | 5 | 5 | 2 | 5 | 5 | 5 | 5 | 5 | 5
3 | CC1=C(Cl)C(=O)N(c2cc(C(F)(F)F)[nH]n2)C1O (stereo not drawn) [Compound A2] | 5 | 0 | 5 | 3 | 0 | 2 | 5 | 4 | 3 | 4 | 5 | 1
4 | CC1=C(Cl)C(=O)N(c2cc(C(C)C)[nH]n2)C1O (stereo not drawn) [Compound A3] | 5 | 3 | 5 | 5 | 5 | 1 | 5 | 5 | 5 | 5 | 5 | 5
5 | CC1=C(Cl)C(=O)N(c2cc(C3CC3)[nH]n2)C1O (stereo not drawn) [Compound A4] | 5 | 4 | 5 | 5 | 5 | 2 | 5 | 5 | 5 | 5 | 5 | 5
6 | CC1=C(Cl)C(=O)N(c2cc(C)[nH]n2)C1O (stereo not drawn) [Compound A5] | 5 | 3 | 5 | 5 | 4 | 2 | 5 | 4 | 3 | 5 | 5 | 3
7 | CC1=C(Cl)C(=O)N(c2cc(C(F)(F)C(F)(F)F)[nH]n2)C1O (stereo not drawn) [Compound A6] | 5 | 3 | 5 | 4 | 4 | 1 | 5 | 5 | 5 | 5 | 4 | 4
8 | CCC(C)(CC)c1cc(N2C(=O)C(Cl)=C(C)C2O)n[nH]1 (stereo not drawn) [Compound A7] | 5 | 3 | 5 | 5 | 5 | 3 | 5 | 5 | 5 | 5 | 5 | 5
9 | CC1=C(Cl)C(=O)N(c2cc(C)n(C)n2)C1O (stereo not drawn) [Compound B1] | 5 | 3 | 5 | 4 | 4 | 3 | 5 | 4 | 5 | 5 | 5 | 5
10 | CC1=C(Cl)C(=O)N(c2cc(C(C)(C)C)n(C)n2)C1O (stereo not drawn) [Compound B2] | 5 | 4 | 5 | 5 | 5 | 2 | 5 | 5 | 5 | 5 | 5 | 5
11 | CC1=C(Cl)C(=O)N(c2cc(C(F)(F)F)n(C)n2)C1O (stereo not drawn) [Compound B3] | 5 | 4 | 4 | 5 | 4 | 2 | 5 | 5 | 5 | 5 | 5 | 4
